Our source for the EC50 values is PMC10285409, “Identification and validation of G protein-coupled receptors modulating flow-dependent signaling pathways in vascular endothelial cells” (Frontiers in Molecular Biosciences, 2023).

Broadly, the EC50 is the midpoint of the concentration-response curve.

This test concerns the target T1, LGR4 (Homo sapiens, UniProt Q9BXB1).
T1 sequence (Q9BXB1 25-951): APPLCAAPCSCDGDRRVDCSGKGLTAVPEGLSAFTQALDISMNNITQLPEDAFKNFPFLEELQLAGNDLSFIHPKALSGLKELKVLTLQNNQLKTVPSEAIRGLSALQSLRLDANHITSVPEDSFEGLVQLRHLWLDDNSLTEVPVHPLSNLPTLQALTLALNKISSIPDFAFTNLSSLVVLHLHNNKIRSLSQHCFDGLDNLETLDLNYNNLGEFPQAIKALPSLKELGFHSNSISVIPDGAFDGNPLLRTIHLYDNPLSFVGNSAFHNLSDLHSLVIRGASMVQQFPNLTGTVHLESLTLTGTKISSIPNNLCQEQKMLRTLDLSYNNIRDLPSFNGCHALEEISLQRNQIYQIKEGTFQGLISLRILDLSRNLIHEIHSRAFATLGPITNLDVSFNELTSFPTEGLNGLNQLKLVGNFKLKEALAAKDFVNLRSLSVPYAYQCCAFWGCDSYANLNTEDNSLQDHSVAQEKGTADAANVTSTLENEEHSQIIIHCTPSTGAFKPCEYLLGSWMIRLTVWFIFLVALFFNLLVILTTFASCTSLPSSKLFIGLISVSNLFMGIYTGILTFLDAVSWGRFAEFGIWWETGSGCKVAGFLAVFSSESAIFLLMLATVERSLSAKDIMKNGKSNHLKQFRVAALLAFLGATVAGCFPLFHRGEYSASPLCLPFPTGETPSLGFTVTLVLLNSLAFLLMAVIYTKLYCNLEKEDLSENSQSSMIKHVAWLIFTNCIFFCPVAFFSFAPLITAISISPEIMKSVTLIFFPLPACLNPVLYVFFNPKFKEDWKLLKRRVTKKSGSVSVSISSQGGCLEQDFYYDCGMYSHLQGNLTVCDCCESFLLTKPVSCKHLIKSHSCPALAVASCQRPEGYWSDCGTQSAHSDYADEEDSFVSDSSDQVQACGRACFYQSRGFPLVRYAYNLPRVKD
The test can be described thus: beta-arrestin recruitment enzyme complementation in CHO-K1 LGR4 cells; KLF2-luciferase activity lost on LGR4 knockdown. The test is classed as cell-based.

In turn, `CCCCN(Cc1ccc(-c2ccccc2-c2nnn[nH]2)cc1)C(=O)NCc1ccc(Cl)cc1` [Compound 1] displayed an EC50 of 27 µM.
The figure for `CCCCOC(=O)c1c(Cl)nc(CCCC)n1Cc1cccc2c1ccn2-c1ccccc1-c1nn[nH]n1` [Compound 2] is 5 µM.
